Eight compounds from US20240360133A1, “FUSED TRICYCLIC COMPOUND, PREPARATION METHOD THEREFOR AND APPLICATION THEREOF IN MEDICINE” (Jiangsu Hengrui Pharmaceuticals Co., Ltd., priority 2020, published 2024) can be followed below.

The test deals with T1, human TLR7 (Homo sapiens, UniProt Q9NYK1).
T1 construct: host or cells: HEK-Blue hTLR7 (HEK293)
T1 sequence (Q9NYK1 27-1049): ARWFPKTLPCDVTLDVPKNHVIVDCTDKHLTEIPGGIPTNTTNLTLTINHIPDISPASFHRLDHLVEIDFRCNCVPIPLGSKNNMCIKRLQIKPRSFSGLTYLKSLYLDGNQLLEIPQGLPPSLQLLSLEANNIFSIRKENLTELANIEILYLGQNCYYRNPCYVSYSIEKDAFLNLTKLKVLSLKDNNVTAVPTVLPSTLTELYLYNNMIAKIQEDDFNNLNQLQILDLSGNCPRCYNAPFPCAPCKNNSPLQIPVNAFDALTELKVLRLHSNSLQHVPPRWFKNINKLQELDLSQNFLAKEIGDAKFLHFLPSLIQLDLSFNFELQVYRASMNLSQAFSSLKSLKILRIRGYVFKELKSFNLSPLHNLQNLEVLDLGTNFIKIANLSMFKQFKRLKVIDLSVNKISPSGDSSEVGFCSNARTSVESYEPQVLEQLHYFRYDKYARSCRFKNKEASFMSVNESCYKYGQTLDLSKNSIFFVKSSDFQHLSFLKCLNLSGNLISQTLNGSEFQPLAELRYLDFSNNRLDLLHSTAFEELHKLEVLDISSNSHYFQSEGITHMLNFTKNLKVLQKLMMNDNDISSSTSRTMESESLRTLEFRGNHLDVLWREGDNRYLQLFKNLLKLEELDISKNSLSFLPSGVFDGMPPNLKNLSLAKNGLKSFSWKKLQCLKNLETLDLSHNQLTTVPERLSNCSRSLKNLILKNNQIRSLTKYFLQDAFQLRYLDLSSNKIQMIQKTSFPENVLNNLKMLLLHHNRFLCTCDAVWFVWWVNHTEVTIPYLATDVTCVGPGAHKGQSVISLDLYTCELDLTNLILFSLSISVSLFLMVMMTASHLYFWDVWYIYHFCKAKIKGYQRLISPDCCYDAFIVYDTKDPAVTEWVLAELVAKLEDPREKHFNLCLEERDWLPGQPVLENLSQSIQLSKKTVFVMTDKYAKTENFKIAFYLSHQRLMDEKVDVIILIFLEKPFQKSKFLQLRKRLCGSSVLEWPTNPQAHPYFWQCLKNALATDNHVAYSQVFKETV
As to the kind of experiment: Inhibitory effect on human TLR7 activation pathway (HEK-Blue hTLR7 SEAP reporter). As to conditions: HEK-Blue hTLR7 cells, 1 μM resiquimod, 20 h, SEAP OD620. It is filed as cell-based. As for the experimental part: • 1. HEK-Blue™ hTLR7 cell (Invivogen) • 2. Resiquimod (R848, Invivogen) • 3. Alkaline phosphatase detection medium (Quanti-Blue Detection, Invivogen) • 4. Blasticidin (Invivogen) • 5. Zeocin (Invivogen) • 6. Normocin (Invivogen) • 7. DMEM/HIGH Glucose (GE Healthcare) • 8. Fetal bovine serum (FBS, Gibco) • 9. Phosphate-buffered saline (Shanghai BasalMedia Technologies Co., Ltd.) • 10. Sterile purified water (made in-house by Shanghai Hengrui) • 11. 15 mL centrifuge tube (Corning) • 12. %-well formulating plate (Corning) • 13. 96-well flat-bottom cell culture plate (Corning) • 14. Constant-temperature cell incubator (Thermo scientific) • 15. Constant-temperature incubator (Shanghai Yiheng Scientific Instruments Co., Ltd.) • 16. PHERAstar FS microplate reader (BMG Labtech)
HEK-Blue™ hTLR7 cells were purchased from Invivogen. These cells are HEK293 cells transfected with the human Toll-like receptor 7 (TLR7) gene and the secreted alkaline phosphatase reporter gene (SEAP). The alkaline phosphatase reporter gene (SEAP) is under the regulation of the IFN—P minimal promoter comprising 5 NF-kB and AP-1 binding sites. Upon activation of TLR7 with an agonist, SEAP secretion is induced via downstream NF-kB and AP-1. After addition of an antagonist compound, the pathway described above is inhibited, and SEAP secretion is reduced. The activity of the compounds for the TLR7 pathway was evaluated by measuring OD620 through the SEAP substrate.
20 mM test compounds dissolved in 100% DMSO were serially diluted with 100% DMSO to 2000, 400, 80, 16, 3.2, 0.64, 0.128, 0.0256 μM, with blank wells containing 100% DMSO. The compounds and 100% DMSO were then 20-fold diluted in DMEM/HIGH glucose media containing 10% inactivated FBS (complete media, the same applies below). Resiquimod was diluted to 10 μM with sterile water. The 10 μM resiquimod dilution in sterile water was added to a 96-well cell culture plate at 20 μL/well. The above compounds diluted in complete media and 100% DMSO were then added at 20 μL/well to wells containing resiquimod, 20 μL of sterile water and 20 μL of 100% DMSO diluted in the complete medium were added to negative control wells.
HEK-Blue™ hTLR7 cells were cultured in a DMEM/HIGH glucose medium containing 10% inactivated FBS, 100 μg/mL Normocin, 10 μg/mL blasticidin, and 100 μg/mL Zeocin. Cells that were in a good state of growth and had grown to 70%-80% were collected. The growth medium was discarded, 5-10 mL of PBS pre-heated at 37° C. was added to wash the cells once, and 2-5 mL of pre-heated PBS was added. The cells were cultured at 37° C. for 1-2 min, dispersed by pipetting, transferred to a 15 mL centrifuge tube, and counted, and the cell density was adjusted to 4.8-10′/mL with the complete medium. After density adjustment, 160 μL of the resulting cell suspension was added to the above 96-well cell culture plate to a final number of cells per well of 76,500/well. The final concentration of resiquimod was 1 μM, and the final concentrations of the test compounds were 10,000, 2000, 400, 80, 16, 3.2, 0.64, and 0.128 nM. The cells were cultured in a 37° C., 5% CO2 incubator for 20 h. Then 20 μL of the supernatant was added to 180 μL of the prepared alkaline phosphatase detection medium and incubated in the dark in a constant-temperature incubator at 37° C. for 120 min. Then the OD620 absorbance readings were taken on a microplate reader. The inhibition rate was calculated using the following formula: […]
Inhibition curves were plotted using Graphpad Prism software according to the concentrations of the compounds and the corresponding inhibition rates, and the concentrations of the compounds at which the inhibition rate reached 50%, i.e., IC50 values, were calculated and are shown in Table 1.
For the compound `Cc1cc(-c2[nH]c3cc4c(nc3c2C(C)C)CN(C(C)C)CC4)cc(C)n1` [Example 2, 2-(2,6-Dimethylpyridin-4-yl)-3,6-diisopropyl-5,6,7,8-tetrahydro-1H-pyrrolo[3,2-b][1,7]naphthyridine], the IC50 – broadly, the concentration that inhibits the measured activity by half – was determined as 29.9 nM. In the case of `Cc1c(-c2[nH]c3cc4c(nc3c2C(C)C)CNCC4)cn2ncnc2c1C` [Example 9, 2-(7,8-Dimethyl-[1,2,4]triazolo[1,5-a]pyridin-6-yl)-3-isopropyl-5,6,7,8-tetrahydro-1H-pyrrolo[3,2-b][1,7]naphthyridine], the IC50 was 4.9 nM. `Cc1cc(-c2[nH]c3cc4c(nc3c2C(C)C)CN(Cc2ccc(N3CCNCC3)cn2)CC4)cc(C)n1` [Example 5, 2-(2,6-Dimethylpyridin-4-yl)-3-isopropyl-6-((5-(piperazin-1-yl)pyridin-2-yl)methyl)-5,6,7,8-tetrahydro-1H-pyrrolo[3,2-b][1,7]naphthyridine] returned an IC50 of 5.7 nM. The result for `Cc1cc(-c2[nH]c3cc4c(nc3c2C(C)C)CNCC4)cc(C)n1` [Example 1, 2-(2,6-Dimethylpyridin-4-yl)-3-isopropyl-5,6,7,8-tetrahydro-1H-pyrrolo[3,2-b][1,7]naphthyridine] reads 7.7 nM; that for `Cc1cc(-c2[nH]c3cc4c(nc3c2C(C)C)CN(CCc2ccc(N3CCNCC3)nc2)CC4)cc(C)n1` [Example 4, 2-(2,6-Dimethylpyridin-4-yl)-3-isopropyl-6-(2-(6-(piperazin-4-yl)pyridin-3-yl)ethyl)-5,6,7,8-tetrahydro-1H-pyrrolo[3,2-b][1,7]naphthyridine], 6.8 nM; that for `Cc1cc(-c2[nH]c3cc4c(nc3c2C(C)C)CN(CC23CCC(N)(CC2)CC3)CC4)cc(C)n1` [Example 7, 4-((2-(2,6-Dimethylpyridin-4-yl)-3-isopropyl-1,5,7,8-tetrahydro-6H-pyrrolo[3,2-b][1,7]naphthyridin-6-yl)methyl)bicyclo[2.2.2]octyl-1-amine], 7.1 nM.

Compound `Cc1c(-c2[nH]c3cc4c(nc3c2C(C)C)CN(CC(N)=O)CC4)cn2ncnc2c1C` [Example 10, 2-(2-(7,8-Dimethyl-[1,2,4]triazolo[1,5-a]pyridin-6-yl)-3-isopropyl-1,5,7,8-tetrahydro-6H-pyrrolo[3,2-b][1,7]naphthyridin-6-yl)acetamide] registered an IC50 of 21.5 nM.

In turn, `Cc1cc(-c2[nH]c3cc4c(nc3c2C(C)C)CN(CC(N)=O)CC4)cc(C)n1` [Example 8, 2-(2-(2,6-Dimethylpyridin-4-yl)-3-isopropyl-1,5,7,8-tetrahydro-6H-pyrrolo[3,2-b][1,7]naphthyridin-6-yl)acetamide] came in with an IC50 of 18.2 nM. The IC50 values of the last two compounds are within 1.5-fold of each other.
